We go through 6 compounds from the NIST ThermoML archive (doi:10.1021/je500110d).

Numbers after ± are expanded uncertainties.

Data set [1] in a line: Molar enthalpy of transition or fusion. The settings on record: Crystal; DSC.
[2] abbreviates: 298.15 K, Liquid, Gas chromatography.
Where [3] appears, read: 298.15 K, Metastable liquid, Gas chromatography.

By vapor or sublimation pressure is commonly meant the equilibrium pressure above the liquid or solid. On to `CCCCC(CC)COC(=O)c1ccc(C(=O)OCC(CC)CCCC)cc1` (configuration not stated) [bis(2-ethylhexyl) terephthalate], for which the “vapor or sublimation pressure” value under setting [2] is 5.4e-09 ± 1e-08 kPa.
Consider `CCCCOC(=O)c1ccccc1C(=O)OCCCC` [dibutyl phthalate], for which the “vapor or sublimation pressure” value is given as 0.000224 ± 9e-06 kPa (333.2 K, Liquid, Transpiration method); 0.000365 ± 1.4e-05 kPa (338.4 K, Liquid, Transpiration method); 0.000586 ± 2.3e-05 kPa (343.4 K, Liquid, Transpiration method); 0.000838 ± 3.3e-05 kPa (348 K, Liquid, Transpiration method); 0.0014 ± 5e-05 kPa (353.6 K, Liquid, Transpiration method); 0.00215 ± 8e-05 kPa (358.7 K, Liquid, Transpiration method). In addition, the “vapor or sublimation pressure” value (363.7 K, Liquid, Transpiration method) stood at 0.00316 ± 0.00012 kPa; the “vapor or sublimation pressure” value (368.7 K, Liquid, Transpiration method) came out at 0.00459 ± 0.00018 kPa; the “vapor or sublimation pressure” value (373.6 K, Liquid, Transpiration method) worked out at 0.00675 ± 0.00026 kPa; the “vapor or sublimation pressure” value (378.5 K, Liquid, Transpiration method) is 0.00948 ± 0.00037 kPa.
For the compound `COC(=O)c1ccc(C(=O)OC)cc1` [dimethyl 1,4-benzenedicarboxylate], the “vapor or sublimation pressure” value under setting [3] was 2.14e-07 ± 3.1e-08 kPa.
In the case of `O=C(OC1CCCCC1)c1ccccc1C(=O)OC1CCCCC1` [dicyclohexyl phthalate], under setting [3], the “vapor or sublimation pressure” value is reported as 8e-08 ± 2e-08 kPa. Moreover, the Triple point temperature (Crystal, DTA) is 336.5 ± 0.7 K. The “Molar enthalpy of transition or fusion” value in data set [1] came to 32.3 ± 2.9 kJ/mol.
Take `CCCCCCCCOC(=O)c1ccccc1C(=O)OCCCCCCCC` [dioctyl 1,2-benzenedicarboxylate]: the “vapor or sublimation pressure” value under setting [2] worked out at 5.5e-09 ± 1.1e-08 kPa.
The same measure, in the same setting: to `CCCCOC(=O)c1ccccc1C(=O)OCc1ccccc1` [benzyl butyl 1,2-benzenedioate] belongs 2e-07 ± 1e-07 kPa.
